Assay results reported in patent publication US6506788B1, “N-linked urea or carbamate of heterocyclic thioesters for vision and memory disorders” (GPI Nil Holdings, Inc., priority 1998, dated 2003).
Where two headings read alike, the source gives them in different places. Marks after values point to notes of the source that are not given here. Blank lines part the entries; values can stand above or below the compound they belong to.

Key:
[1] = Clearance (Table V comments, no method given); assay type: in vitro ADME
[2] = test system: retinal ganglion cell axons; experiment: Protection of retinal ganglion cell axons from degeneration following optic nerve transection (Table V); assay type: in vivo; conditions: ± SEM
From the text: Efficacy of representative compounds from different immunophilin ligand series in protecting retinal ganglion cell axons from degeneration following optic nerve transection is set forth in Table V.
Efficacy of representative compounds from different immunophilin ligand series in protecting retinal ganglion cell axons from degeneration following optic nerve transection

FKBP12 = FKBP12 (Homo sapiens, UniProt P62942); experiment: Ki test procedure: inhibition of peptidyl-prolyl isomerase (rotamase) activity, chymotrypsin-coupled assay; assay type: biochemical
Chain of FKBP12 (P62942 whole entry, species assumed): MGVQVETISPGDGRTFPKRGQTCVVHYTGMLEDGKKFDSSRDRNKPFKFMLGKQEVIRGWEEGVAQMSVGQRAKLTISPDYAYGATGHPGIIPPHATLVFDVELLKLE
From the text: The inhibition of the prolyl peptidyl cis-trans isomerase activity of FKBP may be measured as an indicator of this affinity.
Inhibition of the peptidyl-prolyl isomerase (rotamase) activity of the compounds used in the inventive methods and pharmaceutical compositions can be evaluated by known methods described in the literature (Harding et al., Nature, 1989, 341:758-760; Holt et al. J. Am. Chem. Soc., 115:9923-9938).
The cis-trans isomerization of an alanine-proline bond in a model substrate, N-succinyl-Ala-Ala-Pro-Phe-p-nitroanilide, is monitored spectrophotometrically in a chymotrypsin-coupled assay, which releases para-nitroanilide from the trans form of the substrate. The inhibition of this reaction caused by the addition of different concentrations of inhibitor is determined, and the data is analyzed as a change in first-order rate constant as a function of inhibitor concentration to yield the apparent Ki values.
In a plastic cuvette are added […] of ice cold assay buffer (25 mM HEPES, pH 7.8, 100 mM NaCl), 10 mL of FKBP (2.5 mM in 10 mM Tris-Cl pH 7.5, 100 mM NaCl, 1 mM dithiothreitol), 25 mL of chymotrypsin (50 mg/ml in 1 mM HCl) and […] of test compound at various concentrations in dimethyl sulfoxide. The reaction is initiated by the addition of 5 mL of substrate (succinyl-Ala-Phe-Pro-Phe-para-nitroanilide, 5 mg/mL in 2.35 mM LiCl in trifluoroethanol).
The absorbance at 390 nm versus time is monitored for 90 seconds using a spectrophotometer and the rate constants are determined from the absorbance versus time data files.

aged mice = experiment: Morris watermaze spatial learning and memory in aged rodents; assay type: in vivo, C57BL/6N-Nia mice; conditions: 10 mg/kg daily
From the text: The Morris watermaze is widely used for assessing spatial memory formation and retention in experimental animals. The test depends on the animal's ability to utilize spatial visual information in order to locate a submerged escape platform in a water tank. It is important that the tank itself be as devoid of specific visual features as possible—thus, it is always circular in shape, the sides are kept smooth and in uniform dull colors, and the water is rendered opaque with nontoxic watercolor pigment or powdered milk. This is to ensure that the animal navigates only by the use of more distant visual cues, or by the use of intra-maze cues specifically provided by the experimenter. The animals' path, speed, and swim time are tracked with a ceiling camera for later computerized analysis. Over the course of several successive trials, spatial learning can therefore be defined as a drop of distance swum, or time elapsed, from placement in the tank until escape onto the invisible platform. The procedure involved using three-month old (young) and 18-19 month old male C57BL/6N-Nia (aged) mice which habituated to the well known and conventional Morris watermaze during a 4 trials/day, 3-4 day visible platform training phase. […] Swim Distances (cm) were analyzed in a 7×5 ANOVA including Groups and Blocks (1-5) as factors in the analysis, treating Blocks as a repeated measure.

[3] = test system: retinal ganglion cells and optic nerve; experiment: Retinal ischemia (intraocular pressure raised above arterial blood pressure), examined 28 days later; assay type: in vivo, rats; conditions: toluidine blue staining; 28 days after 1 hour retinal ischemia
From the text: Retinal ganglion cells were retrogradely labeled in adult rats by bilateral injection of fluorogold in their lateral geniculate nuclei. Labeled ganglion cells in the normal rat retina appear as white profiles against the dark background (FIG. 1A). Complete retinal ischemia was produced by infusing normal saline solution into the retinal vitreous cavity of each eye until the intraocular pressure exceeded arterial blood pressure. 28 days after the ischemic episode extensive degeneration of retinal ganglion cell was evidenced by massive reduction in the density of fluorogold labeled cells (FIG. 1B).
Optic nerves from vehicle treated cases examined 28 days after a 1 hour retinal ischemic episode are characterized by a decreased density of optic nerve axons and the appearance of numerous degenerating myelin figures (bright white filled circles).

[4] = test system: retinal ganglion cells and optic nerve axons; experiment: In vivo retinal ganglion cell and optic nerve axon tests: optic nerve transection, 14 or 28 day treatment, sacrifice at 90 days; parameters: species or system Sprague Dawley rats; conditions: for ON head area (% sham) / ON Axon density / pattern of myelin degeneration, proximal stump (myelin basic protein immunohistochemistry) / pattern of myelin labeling and degenerating myelin figures, distal stump: 90 days after transection; for ON Axon density: RT97 labeled axons in 200 μm × 200 μm region; for increased ON axon density: adjusted for optic nerve diameter; for Distat optic nerve: shrinkage of cross sectional area: cross sectional area compared to sham control
From the text: All eyes and optic nerves stumps were removed.

retina = experiment: Streptozotocin induced diabetes: retinal neovascularization and neuron loss; assay type: in vivo; conditions: 28 day treatment beginning 8 weeks after onset of diabetes
retinal ganglion cells = experiment: Example 16: optic nerve transection, 28 days treatment, sacrifice at 90 days; assay type: in vivo, Sprague Dawley rats; conditions: 10 mg/kg/day s.c. for 28 days; 90 days after transection
From the text: Transection of the mammalian optic nerve results in a brief period of abortive regeneration, but the majority of axotomized neurons die and the axons from many persisting ganglion cells die back beyond the optic nerve head.

[5] = Table V comments, read-out: Ki rotomase
[6] = apparent Ki, rotamase inhibition, read-out: Ki

Compound: O=C(SCCCc1ccccc1)C1CCCN1S(=O)(=O)Cc1ccccc1 (stereo not shown) [C]
Clearance [1]: 31.1 µL/min | RT97-RGC axon density 11 days after ON transection (36 ON axon rescued) [2]: 60.4% ±3.1% SEM | Ki (FKBP12; [5]): 107 nM

Compound: CCC(C)(C)C(=O)C(=O)N1CCC[C@H]1C(=O)SCCC(c1ccccc1)c1ccccc1 [M]
RT97-RGC axon density 11 days after ON transection (36 ON axon rescued) [2]: −6.3% +3.9% SEM

Compound: CCC(C)(C)C(=O)C(=O)N1CCCC[C@H]1C(=O)SCCC(c1ccccc1)c1ccccc1 [K]
RT97-RGC axon density 11 days after ON transection (36 ON axon rescued) [2]: 13.0% ±4.2% SEM

Compound: CCC(C)(C)C(=O)C(=O)N1CCCC1C(=O)O (stereo not shown) [L]
Clearance [1]: 5.2 µL/min | RT97-RGC axon density 11 days after ON transection (36 ON axon rescued) [2]: 7.8% ±3.0% SEM

Compound: CCC(C)(C)C(=O)C(=O)N1CCC[C@H]1C(=O)CCCCc1cccnc1 [J]
RT97-RGC axon density 11 days after ON transection (36 ON axon rescued) [2]: 15.8% ±4.8% SEM

Compound: CCC(C)(C)C(=O)C(=O)N1CCCC[C@H]1C(N)=O [H]
RT97-RGC axon density 11 days after ON transection (36 ON axon rescued) [2]: 30.3% ±8.0% SEM

Compound: CCC(C)(C)C(=O)C(=O)N1CCC[C@H]1C(=O)OCCCc1cccnc1 [GPI 1046, 3-(3-pyridyl)-1-propyl (2s)-1-(3,3-dimethyl-1,2-dioxopentyl)-2-pyrrolidinecarboxylate]
difference between young and aged impaired treated groups during retention phase (aged mice; F1.69=3.09, P=0.08): no longer any statistically significant difference | spatial memory performance (swim distance, retention testing) (aged mice; aged impaired mice, retention testing after 3 weeks of dosing): significantly enhanced spatial memory performance | density of degenerating myelin figures in optic nerve [3]: dramatically decreased | ON head area (% sham) ([4]; ONT/14 days treatment): 76% | ON Axon density ([4]; ONT/14 days treatment): 569 | increased ON axon density ([4]; ONT/14 days treatment): 1.5X | Distat optic nerve: shrinkage of cross sectional area ([4]; ONT/14 days treatment): did not protect against shrinkage of the distal stump | Distat optic nerve myclin basic protein Density (myelin level) ([4]; ONT/14 days treatment, cross sectional area multiplied by myelin density): slightly increase the density of myelin | ON head area (% sham) ([4]; ONT/28 days treatment): 95%* | ON Axon density ([4]; ONT/28 days treatment): significant increase | increased ON axon density ([4]; ONT/28 days treatment): 5.0 X | Distat optic nerve: shrinkage of cross sectional area ([4]; ONT/28 days treatment): prevented cross sectional shrinkage | pattern of myelin degeneration, proximal stump (myelin basic protein immunohistochemistry) ([4]; first 14 days treatment): did not alter the pattern of myelin degeneration | pattern of myelin labeling and degenerating myelin figures, distal stump ([4]; first 14 days treatment): density of degenerating myelin figures remained high | pattern of myelin degeneration, proximal stump (myelin basic protein immunohistochemistry) ([4]; first 28 days treatment): dramatic preservation of the fascicular staining pattern | pattern of myelin labeling and degenerating myelin figures, distal stump ([4]; first 28 days treatment): dramatic protection of the fascicular pattern of myelin labeling | neuronal loss in the ONL (retina): did not appear to protect against neuronal loss | loss of neurons in the INL and GCL (retina; vs streptozotocin/vehicle controls): appeared to decrease the loss of neurons | preservation of axons in the proximal stump (RT97 neurofilament) (retinal ganglion cells): preserved the axons of virtually all protected neurons

Compound: O=C(OCCCCc1ccccc1)[C@@H]1CCCCN1S(=O)(=O)Cc1ccccc1 [D]
RT97-RGC axon density 11 days after ON transection (36 ON axon rescued) [2]: 58.4% ±6.4% SEM

Compound: O=C(OCCCc1cccnc1)[C@@H]1CCCN1C(=S)NC1CCCCC1 [I]
RT97-RGC axon density 11 days after ON transection (36 ON axon rescued) [2]: 23.8% ±5.3 SEM

Compound: CCC(C)(C)C(=O)C(=O)N1CCS[C@H]1C(=O)OCCCc1cccnc1 [F]
RT97-RGC axon density 11 days after ON transection (36 ON axon rescued) [2]: 55.1% ±5.9% SEM

Compound: CCC(C)(C)C(=O)C(=O)N1CCCC[C@H]1C(=O)O [G]
RT97-RGC axon density 11 days after ON transection (36 ON axon rescued) [2]: 34.0% ±4.8% SEM

Further lines, with some results ahead:

Ki (FKBP12; [6]): 51 to 200 nM
Compound: CCC(C)(C)NC(=O)N1CCC[C@H]1C(=O)SCCCc1cccnc1 [Compound 2]

Ki (FKBP12; [6]): 51 to 200 nM
Compound: O=C(SCCCc1cccnc1)[C@@H]1CCCN1C(=S)NC1CCCCC1 [Compound 7, 3-(3-pyridyl)-1-propylmercaptyl 2S-1-[(cyclohexyl)thiocarbamoyl]-pyrrolidine-2-carboxylate]

Clearance [1]: 63.8 µL/min | Ki (FKBP12; [5]): 7.5 nM
Compound: 3-(3-pyridyl)-1-propyl (2s)-1-(3,3-dimethyl-1,2-dioxopentyl)-2-pyrrolidinecarboxylate [GPI 1046]
RT97-RGC axon density 11 days after ON transection (36 ON axon rescued) [2]: 60.5% ±3.9 SEM

Ki (FKBP12; [6]): 1 to 50 nM
Compound: O=C(SC(CCc1ccccc1)CCc1ccccc1)C1CCCCN1C(=S)NC1CCCCC1 (stereo not shown) [Compound 15]

Ki (FKBP12; [6]): 201 to 500 nM
Compound: O=C(SCCCc1cccnc1)C1CCCN1C(=O)NC1CCCCC1 (stereo not shown) [Compound 6]

Ki (FKBP12; [6]): 1 to 50 nM
Compound: O=C(SCCCc1ccccc1)C1CCCCN1C(=O)Nc1ccccc1 (stereo not shown) [Compound 12]

Ki (FKBP12; [6]): 51 to 200 nM
Compound: CCC(C)(C)NC(=O)N1CCCCC1C(=O)SCCCc1ccccc1 (stereo not shown) [Compound 11]

Ki (FKBP12; [6]): 51 to 200 nM
Compound: COc1ccc(CCCSC(=O)C2CCCCN2C(=O)NC2CCCCC2)cc1 (stereo not shown) [Compound 16]

Ki (FKBP12; [6]): 51 to 200 nM
Compound: CCC(C)(C)NC(=O)N1CCCC1C(=O)SCCc1ccccc1 (stereo not shown) [Compound 4]

Ki (FKBP12; [6]): 1 to 50 nM
Compound: CCC(C)CNC(=O)N1CCC[C@H]1C(=O)SCCCc1cccnc1 (stereo partly drawn) [Compound 1, 3-(3-Pyridyl)-1-propylmercaptyl 2S-1-[(2-methylbutyl)carbamoyl]pyrrolidine-2-carboxylate]

Ki (FKBP12; [5]): 149 nM
Compound: O=C(SCCCc1ccccc1)C1CCCN1C(=O)NC12CC3CC(CC(C3)C1)C2 (stereo not shown) [B]
RT97-RGC axon density 11 days after ON transection (36 ON axon rescued) [2]: 100.0% ±5.2% SEM
